Results taken from ChEMBL document CHEMBL3885881, “DrugMatrix”.

Organism: Rattus norvegicus
Experiment: DrugMatrix - Regimen: Daily Repeat
Type: toxicity, organism-based, Sprague-Dawley
Set-up: regimen Daily Repeat, gender Male, age 6-8 weeks
Conditions: in vivo, iv, vehicle 100 % SALINE; for ABSOLUTE MONOCYTE / ABSOLUTE SEGMENTED NEUTROPHIL / BASOPHIL / EOSINOPHIL / ERYTHROCYTE COUNT / HEMATOCRIT / HEMOGLOBIN / LEUKOCYTE COUNT / LYMPHOCYTE / MEAN CORPUSCULAR HEMOGLOBIN / MEAN CORPUSCULAR HEMOGLOBIN CONCENTRATION / MEAN CORPUSCULAR VOLUME / MONOCYTE / NEUTROPHIL / NUCLEATED RED BLOOD CELLS / PLATELET COUNT / ABSOLUTE BASOPHIL / ABSOLUTE EOSINOPHIL / ABSOLUTE LYMPHOCYTE: tissue Blood; for ALANINE AMINOTRANSFERASE / ALBUMIN / ALKALINE PHOSPHATASE / ASPARTATE AMINOTRANSFERASE / BLOOD UREA NITROGEN / CARBON DIOXIDE / CHLORIDE / CHOLESTEROL / CREATINE PHOSPHOKINASE / CREATININE / GLUCOSE / LACTATE DEHYDROGENASE / LIPASE / PHOSPHORUS / POTASSIUM / SODIUM / TOTAL BILIRUBIN / TOTAL PROTEIN / URIC ACID: tissue Plasma
[1] = 20 mg/kg, 120 h, dose level Low, time 5 day
[2] = 82 mg/kg, 72 h, dose level High, time 3 day
[3] = 82 mg/kg, 120 h, dose level High, time 5 day

Structure (SMILES): NCC[C@H](O)C(=O)N[C@@H]1C[C@H](N)[C@@H](O[C@H]2O[C@H](CN)[C@@H](O)[C@H](O)[C@H]2O)[C@H](O)[C@H]1O[C@H]1O[C@H](CO)[C@@H](O)[C@H](N)[C@H]1O [AMIKACIN]
- ABSOLUTE MONOCYTE [1]: 11 CELLS/uL
- ABSOLUTE SEGMENTED NEUTROPHIL [1]: 480 CELLS/uL
- BASOPHIL [1]: 0%
- EOSINOPHIL [1]: 0%
- ERYTHROCYTE COUNT [1]: 5.48 x10E6/uL
- HEMATOCRIT [1]: 33%
- HEMOGLOBIN [1]: 12.63 G/DL
- LEUKOCYTE COUNT [1]: 3.67 x10E3/uL
- LYMPHOCYTE [1]: 86.67%
- MEAN CORPUSCULAR HEMOGLOBIN [1]: 23 pg
- MEAN CORPUSCULAR HEMOGLOBIN CONCENTRATION [1]: 38.3 G/DL
- MEAN CORPUSCULAR VOLUME [1]: 60.1 fL
- MONOCYTE [1]: 0.33%
- NEUTROPHIL [1]: 13%
- NUCLEATED RED BLOOD CELLS [1]: 0 /100WBC
- PLATELET COUNT [1]: 622.33 x10E3/uL
- ALANINE AMINOTRANSFERASE [1]: 72.67 u/L
- ALBUMIN [1]: 3.63 G/DL
- ALKALINE PHOSPHATASE [1]: 187.33 u/L
- ASPARTATE AMINOTRANSFERASE [1]: 329.33 u/L
- BLOOD UREA NITROGEN [1]: 16 mg/dL
- CARBON DIOXIDE [1]: 32.67 mmol/L
- CHLORIDE [1]: 98.67 MEQ/L
- CHOLESTEROL [1]: 81.33 mg/dL
- CREATINE PHOSPHOKINASE [1]: 388 u/L
- CREATININE [1]: 0.13 mg/dL
- GLUCOSE [1]: 162.67 mg/dL
- LACTATE DEHYDROGENASE [1]: 112 u/L
- LIPASE [1]: 9.67 u/L
- PHOSPHORUS [1]: 10.23 mg/dL
- POTASSIUM [1]: 5.93 MEQ/L
- SODIUM [1]: 142.37 MEQ/L
- TOTAL BILIRUBIN [1]: 0.1 mg/dL
- TOTAL PROTEIN [1]: 5.3 G/DL
- URIC ACID [1]: 0.53 mg/dL
- ABSOLUTE BASOPHIL [2]: 0 CELLS/uL
- ABSOLUTE EOSINOPHIL [2]: 29 CELLS/uL
- ABSOLUTE LYMPHOCYTE [2]: 10165.67 CELLS/uL
- ABSOLUTE MONOCYTE [2]: 121.67 CELLS/uL
- ABSOLUTE SEGMENTED NEUTROPHIL [2]: 950.33 CELLS/uL
- BASOPHIL [2]: 0%
- EOSINOPHIL [2]: 0.33%
- ERYTHROCYTE COUNT [2]: 5.81 x10E6/uL
- HEMATOCRIT [2]: 35.97%
- HEMOGLOBIN [2]: 13.7 G/DL
- LEUKOCYTE COUNT [2]: 11.27 x10E3/uL
- LYMPHOCYTE [2]: 90%
- MEAN CORPUSCULAR HEMOGLOBIN [2]: 23.6 pg
- MEAN CORPUSCULAR HEMOGLOBIN CONCENTRATION [2]: 38.1 G/DL
- MEAN CORPUSCULAR VOLUME [2]: 61.93 fL
- MONOCYTE [2]: 1%
- NEUTROPHIL [2]: 8.67%
- NUCLEATED RED BLOOD CELLS [2]: 0.33 /100WBC
- PLATELET COUNT [2]: 1125.33 x10E3/uL
- ALANINE AMINOTRANSFERASE [2]: 50.67 u/L
- ALBUMIN [2]: 4.17 G/DL
- ALKALINE PHOSPHATASE [2]: 370.33 u/L
- ASPARTATE AMINOTRANSFERASE [2]: 84 u/L
- BLOOD UREA NITROGEN [2]: 14.33 mg/dL
- CARBON DIOXIDE [2]: 35 mmol/L
- CHLORIDE [2]: 98.67 MEQ/L
- CHOLESTEROL [2]: 74.33 mg/dL
- CREATINE PHOSPHOKINASE [2]: 385.33 u/L
- CREATININE [2]: 0.18 mg/dL
- GLUCOSE [2]: 178.33 mg/dL
- LACTATE DEHYDROGENASE [2]: 142.67 u/L
- LIPASE [2]: 9 u/L
- PHOSPHORUS [2]: 11.27 mg/dL
- POTASSIUM [2]: 6 MEQ/L
- SODIUM [2]: 143.33 MEQ/L
- TOTAL BILIRUBIN [2]: 0.2 mg/dL
- TOTAL PROTEIN [2]: 5.97 G/DL
- URIC ACID [2]: 0.7 mg/dL
- ABSOLUTE BASOPHIL [3]: 0 CELLS/uL
- ABSOLUTE EOSINOPHIL [3]: 0 CELLS/uL
- ABSOLUTE LYMPHOCYTE [3]: 6237.33 CELLS/uL
- ABSOLUTE MONOCYTE [3]: 19 CELLS/uL
- ABSOLUTE SEGMENTED NEUTROPHIL [3]: 743.67 CELLS/uL
- BASOPHIL [3]: 0%
- EOSINOPHIL [3]: 0%
- ERYTHROCYTE COUNT [3]: 5.27 x10E6/uL
- HEMATOCRIT [3]: 33.87%
- HEMOGLOBIN [3]: 13.13 G/DL
- LEUKOCYTE COUNT [3]: 7 x10E3/uL
- LYMPHOCYTE [3]: 89.33%
- MEAN CORPUSCULAR HEMOGLOBIN [3]: 24.93 pg
- MEAN CORPUSCULAR HEMOGLOBIN CONCENTRATION [3]: 38.8 G/DL
- MEAN CORPUSCULAR VOLUME [3]: 64.2 fL
- MONOCYTE [3]: 0.33%
- NEUTROPHIL [3]: 10.33%
- NUCLEATED RED BLOOD CELLS [3]: 0.33 /100WBC
- PLATELET COUNT [3]: 1177.67 x10E3/uL
- ALANINE AMINOTRANSFERASE [3]: 59.67 u/L
- ALBUMIN [3]: 3.9 G/DL
- ALKALINE PHOSPHATASE [3]: 382 u/L
- ASPARTATE AMINOTRANSFERASE [3]: 82 u/L
- BLOOD UREA NITROGEN [3]: 17.33 mg/dL
- CARBON DIOXIDE [3]: 32.33 mmol/L
- CHLORIDE [3]: 100 MEQ/L
- CHOLESTEROL [3]: 63.67 mg/dL
- CREATINE PHOSPHOKINASE [3]: 235.67 u/L
- CREATININE [3]: 0.15 mg/dL
- GLUCOSE [3]: 160.67 mg/dL
- LACTATE DEHYDROGENASE [3]: 113.33 u/L
- LIPASE [3]: 9.33 u/L
- PHOSPHORUS [3]: 10.73 mg/dL
- POTASSIUM [3]: 5.04 MEQ/L
- SODIUM [3]: 143.97 MEQ/L
- TOTAL BILIRUBIN [3]: 0.17 mg/dL
- TOTAL PROTEIN [3]: 5.83 G/DL
- URIC ACID [3]: 0.5 mg/dL
